Measured values reported in patent US20250281517A1, “SENOLYSIS BY AMMONIA-LOWERING COMPONENT” (TAZ Inc., priority 2022, published 2025).

Legend:
[1] = test system: p16; assay: mRNA expression level of p16, a marker of senescent cells, in tissues of aged mice (real-time RT-PCR, GAPDH as internal standard); type: in vivo; conditions: aged male C57BL/6J mice (78 weeks old), test substance in drinking water ad libitum for one month, compared to aged mice having no additional administration; for mRNA expression level of marker p16 for senescent cells in the hippocampus: FIG. 3
Experimental: (§1) As animals, experiments was performed using 7 young mice (male C57BL/6J mice, 7 weeks old) and 28 aged mice (male C57BL/6J-Aged mice, 78 weeks old).
(§2) Group 1 was constituted of young mice, and aged mice were divided into 4 groups each consisting of 7 mice (Groups 2 to 5) and the experimental conditions of individual groups are set as shown in the Table below.
(§3) As explained below, water comprising a test substance was given to the mice of Group 3 to Group 5.
(§4) The each types of drinking water which were prepared by adding a test substance as mentioned above was given to mice of each of the groups ad libitum, and the test substance was orally administered for one month. One month after the initiation of the experiment, all mice were sacrificed and dissected. From each of the mice, the liver, kidney, hippocampus and skeletal muscle were collected for measurement markers for senescent cells.
The tissues were collected from mice at the time of dissection and soaked in RNAlater (Ambion) overnight and thereafter stored at −80° C. Total RNA was extracted from the liver tissue by the TRIzol-chroloform method.
The tissue extracted from RNAlater (50 to 100 mg) was put in 1 ml of TRIzol Reagent (Invitrogen Life Technologies), crushed. After standing still at room temperature for 5 minutes, 0.2 ml of chloroform was added and stirred. After standing still at room temperature for 2 to 3 minutes, the mixture was centrifuged at 4° C. and 12,000×g for 15 minutes. The upper layer (250 micro l) was recovered and 0.5 ml of isopropanol was added. […]
(§5) The RNA was purified with 75% ethanol, evaporated to dry under reduced pressure, and dissolved in 50 micro l of RNA-free water. Using NanoDrop ND-1000 (NanoDrop Technologies), absorbance was measured at 260 nm and 280 nm to determination of an absorbance ratio (A260/280 nm), RNA purity was confirmed by checking whether or not the absorbance ratio falls within the range of 1.9 to 2.1.
Quantitative real-time PCR was performed using total RNA extracted from the tissue for analysis of mRNA expressions of senescence markers p16 and p21 commonly known in the technical field.
From the total RNA, CDNA was synthesized using PrimeScript (Registered trademark) RT reagent Kit (Perfect Real Time) in accordance with the protocol of the manufacturer. Then, CDNA was amplified by Thermal Cycler Dice Real Time System TP800 (Takara Bio) and fluorescence was detected by SYBR (Registered trademark) Premix Ex Taq™ (Perfect Real Time) and real-time PCR detection system (Takara Bio). […]
Using the mRNA expression of glyceraldehyde-3-phosphate dehydrogenase (GAPDH) as an internal standard for correction, the relative values of mRNAs of interest were calculated. […]

[2] = test system: p21; assay: mRNA expression level of p21, a marker of senescent cells, in tissues of aged mice (real-time RT-PCR, GAPDH as internal standard); type: in vivo; conditions: aged male C57BL/6J mice (78 weeks old), test substance in drinking water ad libitum for one month, compared to aged mice having no additional administration
Experimental: as §1, §2, §3
as §4, with “From each of the mice, the liver, kidney, hippocampus and skeletal muscle were collected for measurement markers for senescent cells.” left out
as §5
Quantitative real-time PCR was performed using total RNA extracted from the tissue for analysis of mRNA expressions of senescence markers p16 and p21 commonly known in the technical field. […]

SMILES: OC[C@H]1O[C@@H](O[C@@H]2[C@@H](CO)OC(O)(CO)[C@H]2O)[C@H](O)[C@@H](O)[C@H]1O (mixture of isomers) [lactulose]
- mRNA expression level of marker p16 for senescent cells in the hippocampus [1]: decreased, although not significantly
- mRNA expression level of marker p16 for senescent cells in the liver ([1]; liver, FIG. 2, lower panel): significantly decreased
- mRNA expression level of marker p16 for senescent cells in the skeletal muscle ([1]; skeletal muscle, FIG. 4): decreased, although not significantly
- mRNA expression level of marker p21 for senescent cells in the kidney ([2]; kidney, FIG. 1): significantly decreased
- mRNA expression level of marker p21 for senescent cells in the liver ([2]; liver, FIG. 2, upper panel): tended to decrease

SMILES: Cl.NCCC[C@H](N)C(=O)O [ornithine, L-ornithine hydrochloride]
- mRNA expression level of marker p16 for senescent cells in the hippocampus [1]: decreased, although not significantly
